# In PubChem BioAssay (NCI):
#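 Following 48 hours of exposure in 96-well plates, responses at five concentrations were used to interpolate endpoints linearly. Abbreviation: GI50, concentration required for 50% inhibition of growth. TGI: total growth inhibition.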
# Columns and labels:
# Experiment in all cases: NCI-60 cell line screen, 48 h
# A498 renal = tested on: A498 renal
# ACHN renal = tested on: ACHN renal
# CAKI-1 renal = tested on: CAKI-1 renal
# DU-145 prostate = tested on: DU-145 prostate
# HCT-116 colon = tested on: HCT-116 colon
# HCT-15 colon = tested on: HCT-15 colon
# HOP-92 NSCLC = tested on: HOP-92 NSCLC
# MALME-3M melanoma = tested on: MALME-3M melanoma
# MDA-MB-435 = tested on: MDA-MB-435
# OVCAR-5 ovarian = tested on: OVCAR-5 ovarian
# SK-MEL-28 melanoma = tested on: SK-MEL-28 melanoma
# SNB-75 CNS = tested on: SNB-75 CNS
# SW-620 colon = tested on: SW-620 colon
# UACC-257 melanoma = tested on: UACC-257 melanoma
# UO-31 renal = tested on: UO-31 renal
# 786-0 renal = tested on: 786-0 renal
# BT-549 breast = tested on: BT-549 breast
# COLO 205 colon = tested on: COLO 205 colon
# HT29 colon = tested on: HT29 colon
# NCI-H460 lung = tested on: NCI-H460 lung
# OVCAR-3 ovarian = tested on: OVCAR-3 ovarian
# OVCAR-8 ovarian = tested on: OVCAR-8 ovarian
# SF-295 CNS = tested on: SF-295 CNS
# SF-539 CNS = tested on: SF-539 CNS
# SK-MEL-5 melanoma = tested on: SK-MEL-5 melanoma
# SN12C renal = tested on: SN12C renal
# T-47D breast = tested on: T-47D breast
# U251 CNS = tested on: U251 CNS
# CCRF-CEM leukemia = tested on: CCRF-CEM leukemia
# HL-60(TB) leukemia = tested on: HL-60(TB) leukemia
# IGROV1 ovarian = tested on: IGROV1 ovarian
# KM12 colon = tested on: KM12 colon
# MOLT-4 leukemia = tested on: MOLT-4 leukemia
# OVCAR-4 ovarian = tested on: OVCAR-4 ovarian
# PC-3 prostate = tested on: PC-3 prostate
# RXF 393 renal = tested on: RXF 393 renal
# SK-OV-3 ovarian = tested on: SK-OV-3 ovarian
# UACC-62 melanoma = tested on: UACC-62 melanoma
structure (smiles),measurement,setting,value
CN1/C(=C/C=C/c2n(Cc3ccc4ccccc4c3)c(Cl)c(Cl)[n+]2Cc2ccc3ccccc3c2)Oc2ccccc21,GI50,A498 renal,198 nM
same,TGI,A498 renal,756 nM
same,GI50,ACHN renal,494 nM
same,TGI,ACHN renal,1670 nM
same,GI50,CAKI-1 renal,553 nM
same,TGI,CAKI-1 renal,1830 nM
same,GI50,DU-145 prostate,403 nM
same,TGI,DU-145 prostate,1540 nM
same,GI50,HCT-116 colon,255 nM
same,TGI,HCT-116 colon,1080 nM
same,GI50,HCT-15 colon,1240 nM
same,TGI,HCT-15 colon,2680 nM
same,GI50,HOP-92 NSCLC,212 nM
same,TGI,HOP-92 NSCLC,685 nM
same,GI50,MALME-3M melanoma,201 nM
same,TGI,MALME-3M melanoma,625 nM
same,GI50,MDA-MB-435,327 nM
same,TGI,MDA-MB-435,1090 nM
same,GI50,OVCAR-5 ovarian,373 nM
same,TGI,OVCAR-5 ovarian,1590 nM
same,GI50,SK-MEL-28 melanoma,505 nM
same,TGI,SK-MEL-28 melanoma,1750 nM
same,GI50,SNB-75 CNS,176 nM
same,TGI,SNB-75 CNS,731 nM
same,GI50,SW-620 colon,294 nM
same,TGI,SW-620 colon,1150 nM
same,GI50,UACC-257 melanoma,338 nM
same,TGI,UACC-257 melanoma,1440 nM
same,GI50,UO-31 renal,1350 nM
same,TGI,UO-31 renal,2650 nM
Cc1nccn1CC1CCc2c(c3ccccc3n2C)C1=O (configuration not stated),GI50,786-0 renal,78800 nM
same,GI50,BT-549 breast,77300 nM
same,GI50,COLO 205 colon,78700 nM
same,GI50,HCT-116 colon,65600 nM
same,GI50,HT29 colon,27900 nM
same,TGI,HT29 colon,49200 nM
same,GI50,MDA-MB-435,90200 nM
same,GI50,NCI-H460 lung,45700 nM
same,TGI,NCI-H460 lung,68100 nM
same,GI50,OVCAR-3 ovarian,90300 nM
same,GI50,OVCAR-5 ovarian,95300 nM
same,GI50,OVCAR-8 ovarian,49800 nM
same,GI50,SF-295 CNS,39100 nM
same,TGI,SF-295 CNS,60900 nM
same,GI50,SF-539 CNS,73700 nM
same,GI50,SK-MEL-5 melanoma,66800 nM
same,GI50,SN12C renal,87900 nM
same,GI50,SNB-75 CNS,56500 nM
same,GI50,T-47D breast,71100 nM
same,GI50,U251 CNS,81000 nM
same,GI50,UACC-257 melanoma,42300 nM
same,TGI,UACC-257 melanoma,64300 nM
same,GI50,UO-31 renal,78500 nM
Clc1ccc(N2N=C(c3cccc(Nc4ccncc4)c3)CC2c2ccc(Br)cc2)cc1 (configuration not stated),GI50,A498 renal,1070 nM
same,TGI,A498 renal,2300 nM
same,GI50,ACHN renal,1700 nM
same,TGI,ACHN renal,3060 nM
same,GI50,CAKI-1 renal,1520 nM
same,TGI,CAKI-1 renal,2900 nM
same,GI50,CCRF-CEM leukemia,3430 nM
same,TGI,CCRF-CEM leukemia,> 100000 nM
same,GI50,COLO 205 colon,2260 nM
same,TGI,COLO 205 colon,4760 nM
same,GI50,DU-145 prostate,1800 nM
same,TGI,DU-145 prostate,3250 nM
same,GI50,HL-60(TB) leukemia,2020 nM
same,TGI,HL-60(TB) leukemia,4510 nM
same,GI50,HOP-92 NSCLC,1390 nM
same,TGI,HOP-92 NSCLC,2850 nM
same,GI50,HT29 colon,1910 nM
same,TGI,HT29 colon,4480 nM
same,GI50,IGROV1 ovarian,1800 nM
same,TGI,IGROV1 ovarian,3410 nM
same,GI50,KM12 colon,1730 nM
same,TGI,KM12 colon,3270 nM
same,GI50,MDA-MB-435,1650 nM
same,TGI,MDA-MB-435,3080 nM
same,GI50,MOLT-4 leukemia,2340 nM
same,TGI,MOLT-4 leukemia,6170 nM
same,GI50,NCI-H460 lung,1850 nM
same,TGI,NCI-H460 lung,3530 nM
same,GI50,OVCAR-3 ovarian,1780 nM
same,TGI,OVCAR-3 ovarian,3290 nM
same,GI50,OVCAR-4 ovarian,1830 nM
same,TGI,OVCAR-4 ovarian,3360 nM
same,GI50,OVCAR-5 ovarian,1660 nM
same,TGI,OVCAR-5 ovarian,3100 nM
same,GI50,PC-3 prostate,1570 nM
same,TGI,PC-3 prostate,3190 nM
same,GI50,RXF 393 renal,1620 nM
same,TGI,RXF 393 renal,3020 nM
same,GI50,SF-295 CNS,1770 nM
same,TGI,SF-295 CNS,3200 nM
same,GI50,SF-539 CNS,1740 nM
same,TGI,SF-539 CNS,3260 nM
same,GI50,SK-OV-3 ovarian,2000 nM
same,TGI,SK-OV-3 ovarian,3920 nM
same,GI50,SN12C renal,1670 nM
same,TGI,SN12C renal,3210 nM
same,GI50,SNB-75 CNS,1410 nM
same,TGI,SNB-75 CNS,2900 nM
same,GI50,SW-620 colon,1730 nM
same,TGI,SW-620 colon,3510 nM
same,GI50,UACC-62 melanoma,1770 nM
same,TGI,UACC-62 melanoma,3250 nM
same,GI50,UO-31 renal,1410 nM
same,TGI,UO-31 renal,2750 nM
